Molecules are shown by their SMILES. Where “and” joins values, the source holds several entries; their conditions need not be identical. Equal values may be shown once. Where only a bound is given, the exact number is not on record here.

Broadly, the viability, T/C is the ratio of treated to control. By IC50 is commonly meant the concentration that gives 50% inhibition.

In this assay the test system is 186277-243-T-J2-PDC complex spheroid viability. Put plainly: Anticancer human tumor 186277-243-T-J2-PDC patient-derived colon adenocarcinoma cell line growth inhibition. The note with it: for viability, T/C: stronger effect = lower value. The gist of the method:
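Complex spheroids of tumor cells with HUVEC and human MSCs, exposed to iadademstat combined with other agents. Each agent tested in half-log steps from near clinical Cmax (else 10 microM top), DMSO ≤0.25%.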

[1] abbreviates: curve of first compound, second compound 0.1 µM.
Setting [2] is: curve of first compound, second compound 0.316 µM.
[3] abbreviates: curve of first compound, second compound 1 µM.
Setting [4] is: curve of first compound, second compound 3.16 µM.
The mark [5] stands for this setting: curve of first compound, second compound 10 µM.
[6] abbreviates: second compound 0.1 µM, first compound 0.0316 µM.
[7] abbreviates: second compound 0.1 µM, first compound 0.1 µM.
[8] abbreviates: second compound 0.316 µM, first compound 0.0316 µM.
[9] abbreviates: second compound 0.316 µM, first compound 0.1 µM.
Where [10] appears, read: second compound 1 µM, first compound 0.0316 µM.
Setting [11] is: second compound 1 µM, first compound 0.1 µM.
Setting [12] is: second compound 3.16 µM, first compound 0.0316 µM.
The mark [13] stands for this setting: second compound 3.16 µM, first compound 0.1 µM.
Setting [14] is: second compound 10 µM, first compound 0.0316 µM.
Where [15] appears, read: second compound 10 µM, first compound 0.1 µM.
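Further: 7 day exposure to compounds.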
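Wherever viability, T/C is given: 100% = DMSO vehicle control viability.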

With `CC(C)c1c(-c2ccccc2)nc2c(C#N)c[nH]n2c1=O`, the viability, T/C was 94.8% and 108% (compound 0.0316 µM); 93.3% and 97.7% (compound 0.1 µM); 101% and 99.1% (compound 0.316 µM); 97.6% and 97.4% (compound 1 µM); 96% and 82.9% (compound 3.16 µM); 85.3% and 72.9% (compound 10 µM). For the same compound, the IC50 (curve of compound) was greater than 10000 nM.

As to `NC1CC1c1ccc(-c2cccc(O)c2)cc1` (stereo not drawn), the viability, T/C runs as follows: (compound 0.1 µM) 101%; (compound 0.316 µM) 102% [middle of 25 runs]; (compound 3.16 µM) 107% [middle of 25 runs]. Moreover, for the setting “compound alone, run of 02/01/2022”, the IC50 is greater than 10000 nM.

As to `CC1(C)CCC(CN2CCN(c3ccc(C(=O)NS(=O)(=O)c4ccc(NCC5CCOCC5)c([N+](=O)[O-])c4)c(Oc4cnc5[nH]ccc5c4)c3)CC2)=C(c2ccc(Cl)cc2)C1`, the viability, T/C reads like this: (compound 0.0316 µM) 100% and 109%; (compound 0.1 µM) 108% and 90.4%; (compound 0.316 µM) 93% and 94.6%; (compound 1 µM) 95.7% and 97.7%; (compound 3.16 µM) 52.1% and 28.3%; (compound 10 µM) 8.65% and 0.19%. Besides, the IC50 (curve of compound) is 3360 nM and 2210 nM.

Consider `CC(C)c1c(-c2ccccc2)nc2c(C#N)c[nH]n2c1=O` + NC1CCC(NC2CC2c2ccccc2)CC1, for which the IC50 is, setting by setting: under setting [1], greater than 10000 nM; under setting [2], greater than 10000 nM; under setting [3], greater than 10000 nM; under setting [4], greater than 10000 nM; under setting [5], greater than 10000 nM. For the same compound, the viability, T/C under setting [6] is 112%; the viability, T/C under setting [7] was 118%; the viability, T/C (second compound 0.1 µM, first compound 0.316 µM) was 114%; the viability, T/C (second compound 0.1 µM, first compound 1 µM) was 105%; the viability, T/C (second compound 0.1 µM, first compound 3.16 µM) is 114%; the viability, T/C (second compound 0.1 µM, first compound 10 µM) was 103%. Further, the viability, T/C was 108% under setting [8]; 125% under setting [9]; 115% (second compound 0.316 µM, first compound 0.316 µM); 115% (second compound 0.316 µM, first compound 1 µM); 108% (second compound 0.316 µM, first compound 3.16 µM); 96.8% (second compound 0.316 µM, first compound 10 µM). The viability, T/C reads like this: under setting [10], 110%; under setting [11], 110%; (second compound 1 µM, first compound 0.316 µM) 108%; (second compound 1 µM, first compound 1 µM) 112%; (second compound 1 µM, first compound 3.16 µM) 109%; (second compound 1 µM, first compound 10 µM) 106%. Besides, the viability, T/C runs as follows: under setting [12], 112%; under setting [13], 119%; (second compound 3.16 µM, first compound 0.316 µM) 112%; (second compound 3.16 µM, first compound 1 µM) 121%; (second compound 3.16 µM, first compound 3.16 µM) 107%; (second compound 3.16 µM, first compound 10 µM) 105%. In addition, the viability, T/C runs as follows: under setting [14], 104%; under setting [15], 101%; (second compound 10 µM, first compound 0.316 µM) 107%; (second compound 10 µM, first compound 1 µM) 110%; (second compound 10 µM, first compound 3.16 µM) 101%; (second compound 10 µM, first compound 10 µM) 90.5%.

Consider `Cn1ncnc1C1c2n[nH]c(=O)c3cc(F)cc(c23)NC1c1ccc(F)cc1` (stereo not drawn) + NC1CCC(NC2CC2c2ccccc2)CC1, for which the IC50 was greater than 100 nM under setting [1]; greater than 100 nM under setting [2]; greater than 100 nM under setting [3]; greater than 100 nM under setting [4]; greater than 100 nM under setting [5]. The viability, T/C is, setting by setting: (second compound 0.1 µM, first compound 0.000316 µM) 109%; (second compound 0.1 µM, first compound 0.001 µM) 105%; (second compound 0.1 µM, first compound 0.00316 µM) 111%; (second compound 0.1 µM, first compound 0.01 µM) 107%; under setting [6], 109%; under setting [7], 104%. The viability, T/C (second compound 0.316 µM, first compound 0.000316 µM) is 113%; the viability, T/C (second compound 0.316 µM, first compound 0.001 µM) was 107%; the viability, T/C (second compound 0.316 µM, first compound 0.00316 µM) is 109%; the viability, T/C (second compound 0.316 µM, first compound 0.01 µM) is 108%; the viability, T/C under setting [8] was 103%; the viability, T/C under setting [9] was 96.8%. Besides, the viability, T/C was 111% (second compound 1 µM, first compound 0.000316 µM); 107% (second compound 1 µM, first compound 0.001 µM); 110% (second compound 1 µM, first compound 0.00316 µM); 107% (second compound 1 µM, first compound 0.01 µM); 99.6% under setting [10]; 97.8% under setting [11]. Also, the viability, T/C was 109% (second compound 3.16 µM, first compound 0.000316 µM); 99% (second compound 3.16 µM, first compound 0.001 µM); 109% (second compound 3.16 µM, first compound 0.00316 µM); 103% (second compound 3.16 µM, first compound 0.01 µM); 99.3% under setting [12]; 104% under setting [13]. For the same compound, the viability, T/C runs as follows: (second compound 10 µM, first compound 0.000316 µM) 107%; (second compound 10 µM, first compound 0.001 µM) 113%; (second compound 10 µM, first compound 0.00316 µM) 102%; (second compound 10 µM, first compound 0.01 µM) 104%; under setting [14], 96%; under setting [15], 108%.

As to `O=C(C=Cc1cccc(S(=O)(=O)Nc2ccccc2)c1)NO` + NC1CC1c1ccc(-c2cccc(O)c2)cc1, the IC50 is, setting by setting: under setting [1], 240 nM; under setting [2], 237 nM; under setting [3], 260 nM; under setting [4], 268 nM; under setting [5], 238 nM. In addition, the viability, T/C (second compound 0.1 µM, first compound 0.00949 µM) was 104%; the viability, T/C (second compound 0.1 µM, first compound 0.03 µM) is 103%; the viability, T/C (second compound 0.1 µM, first compound 0.0949 µM) was 94%; the viability, T/C (second compound 0.1 µM, first compound 0.3 µM) is 23.5%; the viability, T/C (second compound 0.1 µM, first compound 0.949 µM) was 3.89%; the viability, T/C (second compound 0.1 µM, first compound 3 µM) was 91.1%. For the same compound, the viability, T/C is 106% (second compound 0.316 µM, first compound 0.00949 µM); 113% (second compound 0.316 µM, first compound 0.03 µM); 90.8% (second compound 0.316 µM, first compound 0.0949 µM); 25.9% (second compound 0.316 µM, first compound 0.3 µM); 3.14% (second compound 0.316 µM, first compound 0.949 µM); 89.5% (second compound 0.316 µM, first compound 3 µM). For the same compound, the viability, T/C was 116% (second compound 1 µM, first compound 0.00949 µM); 101% (second compound 1 µM, first compound 0.03 µM); 109% (second compound 1 µM, first compound 0.0949 µM); 23.3% (second compound 1 µM, first compound 0.3 µM); 3.06% (second compound 1 µM, first compound 0.949 µM); 98.7% (second compound 1 µM, first compound 3 µM). Besides, the viability, T/C runs as follows: (second compound 3.16 µM, first compound 0.00949 µM) 118%; (second compound 3.16 µM, first compound 0.03 µM) 106%; (second compound 3.16 µM, first compound 0.0949 µM) 111%; (second compound 3.16 µM, first compound 0.3 µM) 26%; (second compound 3.16 µM, first compound 0.949 µM) 3.1%; (second compound 3.16 µM, first compound 3 µM) 101%. Moreover, the viability, T/C (second compound 10 µM, first compound 0.00949 µM) is 99.3%; the viability, T/C (second compound 10 µM, first compound 0.03 µM) is 96.8%; the viability, T/C (second compound 10 µM, first compound 0.0949 µM) was 87.5%; the viability, T/C (second compound 10 µM, first compound 0.3 µM) was 21.8%; the viability, T/C (second compound 10 µM, first compound 0.949 µM) was 1.11%; the viability, T/C (second compound 10 µM, first compound 3 µM) was 99%.

For the origin of these results see PubChem BioAssay AID1918933 (Molecular Pharmacology Branch, DTP, NCI, 2023).
